{"source": "patent US20040072848A1", "about": "“Methods of treating irritable bowel syndrome and functional dyspepsia” (priority 2003, published 2004)", "test_system": "Zymosan-sensitized rats", "assay": "Rodent model of zymosan-induced hyperalgesia: visceromotor response to colorectal distention", "assay_type": "in vivo, Sprague-Dawley rats", "details": "two doses (time 0 and 16 h), intracolonic zymosan, CRD 80 mm Hg, 20 s, 4 h after zymosan, expressed as percentage of control, baseline = 100%", "experimental": "FIG. 1 is a graphical representation of the results of a study conducted in Zymosan-sensitized rats comparing the effect of (E)-4-(1,3-bis(cyclohexylmethyl)-1,2,3,6-tetrahydro-2,6-dioxo-9H-purin-8-yl)cinnamic acid nonaethylene glycol methyl ether ester ([…] and 25 mg/kg) versus vehicle. Results are reported as response to colorectal distention (CRD) (as a percent of control) with increasing dosage of 0, 12.5, and 25 mg/kg of compound (sensitized --▪--) as compared to baseline (--♦--).\nProtocol for Evaluation of (E)-4-(1,3-bis(cyclohexylmethyl)-1,2,3,6-tetrahydro-2,6-dioxo-9H-purin-8-yl)cinnamic acid nonaethylene glycol methyl ether ester in a Rodent Model of Zymosan-Induced Hyperalgesia […]\nThe descending colon and rectum were distended by pressure-controlled inflation of a 7-8-cm-long flexible latex balloon tied around a flexible tube. […] Intracolonic pressure was continuously monitored by the aid of a pressure control device. Response was, quantified as the visceromotor response (VMR), a contraction of the abdominal and hindlimb musculature. EMG activity produced by contraction of the external oblique musculature was quantified using Spike2 software (Cambridge Electronic Designs). Each distension trial lasted 60 seconds, and EMG activity was quantitated in 1-second bins for 20 seconds before distension (baseline), during distention, and 20 seconds after distention. […]"}
{"smiles": "COCCOCCOCCOCCOCCOCCOCCOCCOCCOC(=O)/C=C/c1ccc(-c2nc3c(=O)n(CC4CCCCC4)c(=O)n(CC4CCCCC4)c3[nH]2)cc1", "note": "[(E)-4-(1,3-bis(cyclohexylmethyl)-1,2,3,6-tetrahydro-2,6-dioxo-9H-purin-8-yl)cinnamic acid nonaethylene glycol methyl ether ester]", "values": [{"measurement": "response to colorectal distention (CRD), visceromotor response", "setting": "12.5 mg/kg oral gavage", "value": "decreased the response to colorectal distention down to baseline levels"}, {"measurement": "response to colorectal distention (CRD), visceromotor response", "setting": "25 mg/kg oral gavage", "value": "decreased the response to colorectal distention down to baseline levels"}]}
